Values quoted from earlier work, collected in US11478494B2, “Methods and substances for prevention and treatment of neurodegenerative diseases” (Locus IP Company, LLC, priority 2017, dated 2022).
*1 amine or outer side, *2 acyl side, *3 side chain or, on linkers, in order; H or OH if unused. Where a SMILES comes first, the peptide text is derived from it. Bridges are numbered along the chain shown (N, C = ends). [ ]: non-standard residue; d: D form. X1 = CC(C)CCCCCCCCC[C@H](CC(=O)[*:1])O[*:2]

How the values were obtained:
[1] = surfactin administration
[2] = oral administration

Molecule | concentration without any significant toxic effects [1] [µM] | oral dose administered without toxicity [2]
CC(C)CCCCCCCCC[C@@H]1CC(=O)N[C@@H](CCC(=O)O)C(=O)N[C@@H](CC(C)C)C(=O)N[C@H](CC(C)C)C(=O)N[C@@H](C(C)C)C(=O)N[C@@H](CC(=O)O)C(=O)N[C@H](CC(C)C)C(=O)N[C@@H](CC(C)C)C(=O)O1 [surfactin] (EL[dL]VD[dL]L; linker N-C via X1) | ≤ 25 | –
sophorolipid [SLP] | – | ≤ 5 grams/kg of body weight
